Where two headings read alike, the source gives them in different places.
What was measured:
[1] = tested on: C8-D1A/HD-MB03 mixed spheroids; test: 3D mixed spheroids of astrocytes and MB cells; format: cell-based; conditions: 7 days; axitinib 5 µM or etoposide 1 µM
Experimental: C8-D1A cells were stained with the green fluorescent probe neuro-DiO (cat. number 60015, Biotium, Fremont, CA, USA) according to the manufacturer’s protocol. C8-D1A-neuroDio cells (150,000) and HD-MB03-mCherry or DAOY-mCherry cells (50,000) were plated in 12-well plates. […] Fluorescence images of the cells were taken with a DMI400 inverted microscope (Leica Microsystemes SAS, Nanterre, France) equipped with a 40× objective and a Zyla 5.5 camera (Andor Technologies, Belfast, UK). The cells were then trypsinized and the number of both cell types was quantified using a Melody FACS (BD Biosciences, Frankton Lake, NJ, USA) with a 488 nm laser beam. Analysis of the FACS data was conducted with the Flowjo software (Tree Star Inc., Ashland, OR, USA).
Two thousand cells were seeded in ultralow-adhesion 96-well plates (Corning Inc., Corning, NY, USA). […] Pictures were taken with an AMG Evos microscope 40× objective (Thermo Fisher Scientific Inc, Waltham, MA, USA) and the spheroid areas were measured using the ImageJ software (NIH, Bethesda, MD, USA).

HD-MB03 [2] = test: Cumulative population doubling (CPD), HD-MB03; format: cell-based, human; conditions: continuous treatment; axitinib 5 µM, etoposide 1 µM
Experimental: (§1) Cumulative population doubling (CPD) was assessed as previously described. Briefly, depending on the cell line, a variable number of cells corresponding to about 30% confluency were seeded in triplicate in 60 mm diameter Petri dishes. […] The cells were harvested when the confluency reached about 90%, counted and plated again at a dilution of 1/20. CPD was calculated as previously described.

subcutaneous DAOY tumors = conditions: oral, thrice a week; axitinib 50 mg/kg, etoposide 30 mg/kg, combination 25 + 15 mg/kg
Experimental: For subcutaneous xenograft experiments, tumor cells expressing the luciferase (350,000 HDMB-Luc cells and 1.10^6 DAOY-Luc cells) were resuspended in 200 µL of 5 µg/mL Matrigel (Corning Inc., Corning, NY, USA) and injected subcutaneously in the flank of 5-week-old Rj:NMRI-Foxn1 nude (nu/nu) female mice (Janvier Labs, Le Genest-Saint-Isle, France). Saline solution (NaCl 0.9M; 100 µL) containing 30 mg/mL D-Luciferin (Perkin Elmer, Wellesley, MA, USA) was injected intraperitoneally in the animals and the bioluminescence was quantified using an In Vivo Imaging System (Perkin Elmer, Wellesley, MA, USA) according to the manufacturer’s instructions. Tumor volume (V = L × l2 × 0.52) was determined with a caliper and the endpoint was determined as a tumor volume of 1000 mm^3. […] The mice were sacrificed when the tumor reached 1000 mm^3. […]
(§2) The growth rate of the tumors generated with HD-MB03 cells was determined using a linear regression method applied to the growth curves between the sizes of 400 mm^3 up to the endpoint using Prism 5 (Graphpad Software Inc., San Diego, CA, USA).
Tumor samples were recovered from the animals and embedded in the OCT compound according to the manufacturer’s protocol (Thermo Fisher Scientific Inc., Waltham, MA, USA). […] All the images were then quantified with the CellProfiler 3.0 software.

[3] = tested on: HD-MB03 intracranial tumors
Experimental: HD-MB03-Luc spheroids were stereotaxically implanted into the brains of 9-week-old Rj:NMRI-Foxn1 nude (nu/nu) female mice (Janvier Labs, Le Genest-Saint-Isle, France). Briefly, MB spheroids were generated with 2500 cells grown for 48 h in ultralow-adhesion spheroid 96-well plates (Corning, Corning, NY, USA) and three spheroids per mouse were implanted into the left cerebellar hemisphere (2 mm posterior, 1.5 mm left of the lambda point and 2.5 mm deep) using a Hamilton syringe fitted with a needle (Hamilton, Bonaduz, Switzerland) and following the procedure already described. […] Oral gavage with a vehicle solution was used as the control. Mouse survival was based on the presence of neuropathological symptoms including gait defects and a loss of weight over 10% as endpoints. A minimum of five mice per group was chosen to yield sufficient statistical power (p < 0.05, one-way ANOVA). These experiments were carried out in strict accordance with the recommendations in the Guide for the Care and Use of Laboratory Animals. Our experiments were approved by Direction de l’Action Sanitaire et Sociale of the Principality of Monaco and the ethics committee of Centre Scientifique de Monaco.
(§3) Tumor samples were recovered from the animals and embedded in the OCT compound according to the manufacturer’s protocol (Thermo Fisher Scientific Inc., Waltham, MA, USA). After that, 5 µm thin sections were prepared with a cryostat (Leica Microsystems, Wetzlar, Germany). Incubation was carried out with the following antibodies diluted at 1:1000 in TBS supplemented with 1% horse serum and 1% BSA for 20 min at room temperature: anti-Ki67 (cat. number ab16667, Abcam, Cambridge, UK), anti-CD31 (cat. number 550274, BD Biosciences, Frankton Lake, NJ, USA) or anti-αSMA (cat. number A2547, Merck Millipore, Burlington, MA, USA). The preparations were then washed with TBS–0.025% Triton, incubated with anti-rabbit Alexa488 and anti-mouse Alex-555-coupled secondary antibodies (Cell Signaling Technology, Danvers, MA, USA), washed with TBS–0.025% Triton, and the nuclei were counterstained with Hoechst33342 (Thermo Fisher Scientific, Waltham, MA, USA). Fluorescence images of the cells were taken with a DMI400 inverted microscope equipped with a 40× objective (Leica Microsystemes, Nanterre, France) and a Zyla 5.5 camera (Andor Technologies, Belfast, UK) powered by the Micromanager software. At least one cross-section of nonoverlapping images of each tumor was acquired. All the images were then quantified with the CellProfiler 3.0 software.

D458 = test: MTT assay, 48 h exposure, D458 MB cells; format: cell-based, human; conditions: for IC50: Homo sapiens, MTT, 48 h exposure, mean ± SEM
Experimental: (§4) HDF (3000 cells), C8-D1A (5000 cells), D458 (5000 cells), DAOY (2000 cells), HD-MB03 (10,000 cells) and CHLA-01-Med (10,000 cells) were seeded at an approximate confluency of 50% in 96-well plates (Corning Inc., Corning, NY, USA) in 100 µL medium per well. A range from 50 nM to 150 µM of every drug was tested. The effects of the antiangiogenic compounds were measured using a 3-[4,5-dimethylthiazol-2yl]-diphenyltetrazolium bromide (MTT) colorimetric assay (Sigma, Lyon, France) according to the manufacturer’s instructions. When applicable, IC50 was calculated using the nonlinear regression method of the Prism 5 software (Graphpad Software Inc., San Diego, CA, USA). […] An MTT assay was conducted as described above to assess the fitness of the cells.

DAOY [4] = test: Cumulative population doubling (CPD), DAOY; format: cell-based, human; conditions: continuous treatment; axitinib 5 µM, etoposide 1 µM
Experimental: as §1

C8-D1A = test: MTT assay, 48 h exposure, murine primary astrocytes; format: cell-based; conditions: Mus musculus, C8-D1A
Experimental: as §4

[5] = tested on: subcutaneous HD-MB03 tumors; test: Subcutaneous HD-MB03 xenografts; format: in vivo, mouse; conditions: oral, thrice a week
Experimental: For subcutaneous xenograft experiments, tumor cells expressing the luciferase (350,000 HDMB-Luc cells and 1.10^6 DAOY-Luc cells) were resuspended in 200 µL of 5 µg/mL Matrigel (Corning Inc., Corning, NY, USA) and injected subcutaneously in the flank of 5-week-old Rj:NMRI-Foxn1 nude (nu/nu) female mice (Janvier Labs, Le Genest-Saint-Isle, France). Saline solution (NaCl 0.9M; 100 µL) containing 30 mg/mL D-Luciferin (Perkin Elmer, Wellesley, MA, USA) was injected intraperitoneally in the animals and the bioluminescence was quantified using an In Vivo Imaging System (Perkin Elmer, Wellesley, MA, USA) according to the manufacturer’s instructions. Tumor volume (V = L × l2 × 0.52) was determined with a caliper and the endpoint was determined as a tumor volume of 1000 mm^3. […] The mice were sacrificed when the tumor reached 1000 mm^3. […] No statistical methods were used to predetermine the sample size of the experiments. Animal facility availability and cost were used to determine sample sizes. Two independent cohorts of five mice per group were used for the tumor growth experiment with HD-MB03 cells and one cohort of five mice per group was used for the experiment with DAOY cells. Animal experiments were carried out in strict accordance with the recommendations in the Guide for the Care and Use of Laboratory Animals. Our experiments were approved by Direction de l’Action Sanitaire et Sociale of the Principality of Monaco and the ethics committee of Centre Scientifique de Monaco.
as §2, §3

MB cells [6] = test: Proliferation index assay, MB cells; format: cell-based, human; conditions: after 120 h; axitinib 5 µM, etoposide 1 µM
Experimental: DAOY, D458, D283, C8-D1A and HDF (30,000 cells per well) and HD-MB03 (50,000 cells per well) were seeded in 24-well plates for proliferation assays.

HD-MB03 [7] = test: MTT assay, 48 h exposure, HD-MB03 MB cells; format: cell-based, human; conditions: for IC50: Homo sapiens, HD-MB03, MTT, 48 h exposure, mean ± SEM
Experimental: as §4

DAOY [8] = test: MTT assay, 48 h exposure, DAOY MB cells; format: cell-based, human; conditions: for IC50: Homo sapiens, Daoy, MTT, 48 h exposure, mean ± SEM
Experimental: as §4

HDF = test: MTT assay, 48 h exposure, human dermal fibroblasts; format: cell-based; conditions: Homo sapiens, HDF, Table 1, normal cells, mean ± SEM
Experimental: as §4

CHLA-01-Med = test: MTT assay, 48 h exposure, CHLA-01-Med MB cells; format: cell-based, human
Experimental: as §4

C8-D1A astrocytes = test: Cell viability, propidium iodine incorporation, C8-D1A; format: cell-based, murine; conditions: 48 h; axitinib, cabozantinib, sunitinib 5 µM, etoposide 1 µM
Experimental: (§5) Cell viability assays were conducted using a propidium iodine incorporation technique with an ADAM-sHIT automated cell counter (NanoEnTek, Gyeonggi-do, Korea) according to the manufacturer’s protocol.

MB cells [9] = test: Cell viability, propidium iodine incorporation, MB cells; format: cell-based, human; conditions: 48 h, 5 µM
Experimental: as §5

[10] = axitinib 50 mg/kg, etoposide 30 mg/kg, combination 25 + 15 mg/kg

With `COc1cc([C@@H]2c3cc4c(cc3[C@@H](O[C@@H]3O[C@@H]5CO[C@@H](C)O[C@H]5[C@H](O)[C@H]3O)[C@H]3COC(=O)[C@H]23)OCO4)cc(OC)c1O` [Etoposide, etoposide] the “size of mixed spheroids” value [1] was “strong decrease in the size of spheroids”, the “long-term proliferation (CPD) of HD-MB03 cells” value (HD-MB03 [2]) was “strongly impaired their proliferation” and the “tumor growth (lognormal mathematical modelling)” value (subcutaneous DAOY tumors) was “decreased tumor growth rates”. The “number of CD31-positive and αSMA-positive double-stained structures (vessels covered with pericytes)” value ([3]; metronomic oral treatment) was “decreased the number”, the “survival of mice with intracranial tumors” value ([3]; oral, five times a week, axitinib 50 mg/kg, etoposide 30 mg/kg, combination 25 + 15 mg/kg) was “no significant effect on survival” and the IC50 (D458; Table 3) was 0.52 ± 0.15 µM. For the same compound, the “long-term proliferation (CPD) of DAOY cells” value (DAOY [4]) was “strongly impaired their proliferation”, the IC50 (C8-D1A; Table 3, mean ± SEM) was 2.2 ± 0.6 µM and the “number of endothelial cells (CD31-positive) and/or pericytes/cancer-associated fibroblasts (αSMA-positive)” value [5] was “did not impact”. The “median time to reach the endpoint volume (1000 mm^3)” value [5, 10] was 18 days, the “range of time to reach the endpoint volume (1000 mm^3)” value [5, 10] was 11 to 60 days and the “reduction of proliferation of MB cells” value (MB cells [6]) was “more than 80%”. It also gave an IC50 (HD-MB03 [7]; Table 3) of 0.09 ± 0.006 µM and an IC50 (DAOY [8]; Table 3) of 0.2 µM.
For `CCN(CC)CCNC(=O)c1c(C)[nH]c(/C=C2\C(=O)Nc3ccc(F)cc32)c1C` [Sunitinib, sunitinib], the IC50 (D458; Table 1) was 4.2 ± 0.3 µM, the “Specificity Index relative to C8D1A, D458” value (D458; ratio IC50 C8-D1A / IC50 D458) was 1.36 and the “Specificity Index relative to HDF, D458” value (D458; ratio IC50 HDF / IC50 D458) was 0.43. For the same compound, the IC50 (HDF) was 1.8 ± 0.04 µM, the IC50 (C8-D1A; Table 1, normal cells, mean ± SEM, read-out: IC50 (µM) C8D1A) was 5.7 ± 2.2 µM and the IC50 (CHLA-01-Med; Homo sapiens, Table 1, MTT, 48 h exposure, mean ± SEM) was 7.5 ± 0.8 µM. For the same compound, the “Specificity Index relative to C8D1A, CHLA-01-Med” value (CHLA-01-Med; ratio IC50 C8-D1A / IC50 CHLA-01-Med) was 0.76, the “Specificity Index relative to HDF, CHLA-01-Med” value (CHLA-01-Med; ratio IC50 HDF / IC50 CHLA-01-Med) was 0.24 and the “viability of C8-D1A normal cells” value (C8-D1A astrocytes) was “strongly induced the death”. The IC50 (HD-MB03 [7]; Table 1) was 4.6 ± 0.3 µM, the “Specificity Index relative to C8D1A, HDMB” value (HD-MB03 [7]; ratio IC50 C8-D1A / IC50 HD-MB03) was 1.24 and the “Specificity Index relative to HDF, HD-MB03” value (HD-MB03 [7]; ratio IC50 HDF / IC50 HD-MB03) was 0.39. For the same compound, the IC50 (DAOY [8]; Table 1) was 7.9 ± 5.5 µM, the “Specificity Index relative to C8D1A, DAOY” value (DAOY [8]; ratio IC50 C8-D1A / IC50 DAOY) was 0.72 and the “Specificity Index relative to HDF, DAOY” value (DAOY [8]; ratio IC50 HDF / IC50 DAOY) was 0.23. For the same compound, the “viability of MB cells” value (MB cells [9]) was “decreased the viability of most MB cells”.

From article PMC8750527 (Cancers, 2021)
